According to patent US20080194646A1, “Methods For Avoiding Edema in the Treatment of Metabolic, Inflammatory, and Cardiovascular Disorders” (priority 2005, published 2008):

Tests used:
PPARγ = molecular target: T1, PPARγ (Homo sapiens, UniProt P37231); assay: PPARγ partial agonism (Example 8, FIG. 6); type: cell-based
T1 sequence (P37231 1-505): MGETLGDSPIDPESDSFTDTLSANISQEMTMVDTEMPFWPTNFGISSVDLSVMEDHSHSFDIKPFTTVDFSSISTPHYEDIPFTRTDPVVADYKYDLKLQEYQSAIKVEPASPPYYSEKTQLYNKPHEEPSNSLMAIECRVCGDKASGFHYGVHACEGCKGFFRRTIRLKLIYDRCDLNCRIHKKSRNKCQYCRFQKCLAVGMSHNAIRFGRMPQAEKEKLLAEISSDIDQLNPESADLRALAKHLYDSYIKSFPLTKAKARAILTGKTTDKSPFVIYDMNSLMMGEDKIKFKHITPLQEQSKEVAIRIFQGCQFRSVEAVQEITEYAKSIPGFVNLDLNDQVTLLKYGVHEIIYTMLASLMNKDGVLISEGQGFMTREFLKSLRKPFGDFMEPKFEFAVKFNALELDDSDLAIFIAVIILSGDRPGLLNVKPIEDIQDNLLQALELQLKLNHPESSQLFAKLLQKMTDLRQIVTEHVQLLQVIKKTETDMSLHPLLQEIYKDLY

[1] = test system: type 2 diabetics with inadequate control on insulin; assay: two randomized, double-blind, placebo-controlled studies on type 2 diabetics with inadequate control on insulin; type: in vivo, human
Text: Example 9 presents the results of two randomized, double-blind, placebo-controlled, multi-centre studies on type 2 diabetics with inadequate control on insulin. […] Both studies were about 4 months long, with a stabilization/run in period for 2 to 4 weeks and a 3 month treatment period. Endpoints included fasting plasma glucose (FPG), HbA1c, weight, and the incidence of edema.

[2] = test system: human subjects also receiving glyburide; assay: 14 days of treatment in human subjects also receiving glyburide; type: in vivo
Text: The data for pioglitazone (Actos) is taken from Goldberg R B et al., Diabetes Care 28(7):1547-54 (2005), which is incorporated herein by reference.

monkeys = assay: separate animal studies, heart weight and fluid accumulation (monkeys); type: in vivo; conditions: therapeutically relevant doses, data not shown
rats = assay: separate animal studies, heart weight and fluid accumulation (rats); type: in vivo; conditions: therapeutically relevant doses, data not shown
[3] = plasma hydrolysis of prodrug esters of (−) CPTA; type: in vitro ADME; conditions: human plasma (heparinized, pooled), 37° C., 125 or 250 μM prodrug; read-out: Plasma T1/2
Protocol: This example illustrates the plasma hydrolysis of various prodrug esters of the (S)-enantiomer of CPTA at physiological conditions. Hydrolysis was monitored and analyzed by HPLC. The hydrolytic product was identified by comparison to authentic (−) CPTA and the hydrolytic rates were calculated.
Human plasma (heparinized, pooled) was obtained from Golden West Biololgicals Inc., USA; Plasma incubation was carried out in a Water Bath Shaker (New Brunswick Scientific, Inc.); Sample analyses were carried out on Agilent HPLC 1100 system.
Prepare 31.25 or 62.5 mM prodrug stock solutions in 100% DMSO. Add 4 μL of 31.25 or 62.5 mM prodrug stock solutions to 1.0 mL of plasma in a microcentrifuge tube to make plasma concentration at 125 or 250 μM, mix gently. Aliquots of 50 μL are transferred to 15 microcentrifuge vials. Three samples are immediately removed to a freezer at about −80° C. (0 time point), the remaining samples are incubated in a bath shaker at 37° C. Three samples are removed at 30 min, 2, 7 and 24 hr, and stored at −80° C. until analysis. The relative concentrations of MBX-compounds are determined by HPLC methods. If there are enough data points, the hydrolytic rate can be calculated using WinNonlin software. Table 10 provides a summary of plasma half-lives of some pro-drug esters and FIGS. 20A-20G illustrate the hydrolytic curves of those prodrug esters. […]

C57BL/6j ob/ob Mice = assay: glucose lowering activity of halofenate analogs in ob/ob mice (Example 14); type: in vivo; conditions: 125 mg/kg oral gavage once a day for 1-3 days; Student unpaired t-test
Protocol: Male, 8-9 weeks old, C57BL/6J ob/ob mice were purchased from The Jackson Laboratory (Bar Harbor, Me., USA). Animals were housed (4-5 mice/cage) under standard laboratory conditions at 22±3° C. temperature and 50±20% relative humidity, and were maintained on a diet of Purina rodent chow and water ad libitum. Prior to treatment, blood was collected from the tail vein of each animal. Mice that had non-fasting plasma glucose levels between 250 and 500 mg/dl were used. Each treatment group consisted of 8-10 mice that were distributed so that the mean glucose levels were equivalent in each group at the start of the study. Mice were dosed orally by gavage once a day for 1-3 days with either vehicle, (−) halofenic acid, (+) analog 14, 29, 33, 34, 35, 36, 37, or 38 at 125 mg/kg or (−) analog 29, 36, 37 or 38 at 150 mg/kg. Compounds were delivered in a liquid formulation containing 5% (v/v) dimethyl sulfoxide (DMSO), 1% (v/v) tween 80 and 0.9% (w/v) methylcellulose. The gavage volume was 10 ml/kg. Blood samples were taken at 6 hours after the each dose and analyzed for plasma glucose. Food intake and body weight were measured daily. Plasma glucose concentrations were determined colorimetrically using glucose oxidase method (Sigma Chemical Co, St. Louis, Mo., USA). Significant difference between groups (comparing drug-treated to vehicle-treated) was evaluated using the Student unpaired t-test.

cytochrome P450 2C9 = cytochrome P450 2C9 (Homo sapiens, UniProt P11712); conditions: comparison of enantiomers and racemate; listed as (−) enantiomer of halofenic acid; cited from earlier work
cytochrome P450 2C9, sequence (P11712 whole entry): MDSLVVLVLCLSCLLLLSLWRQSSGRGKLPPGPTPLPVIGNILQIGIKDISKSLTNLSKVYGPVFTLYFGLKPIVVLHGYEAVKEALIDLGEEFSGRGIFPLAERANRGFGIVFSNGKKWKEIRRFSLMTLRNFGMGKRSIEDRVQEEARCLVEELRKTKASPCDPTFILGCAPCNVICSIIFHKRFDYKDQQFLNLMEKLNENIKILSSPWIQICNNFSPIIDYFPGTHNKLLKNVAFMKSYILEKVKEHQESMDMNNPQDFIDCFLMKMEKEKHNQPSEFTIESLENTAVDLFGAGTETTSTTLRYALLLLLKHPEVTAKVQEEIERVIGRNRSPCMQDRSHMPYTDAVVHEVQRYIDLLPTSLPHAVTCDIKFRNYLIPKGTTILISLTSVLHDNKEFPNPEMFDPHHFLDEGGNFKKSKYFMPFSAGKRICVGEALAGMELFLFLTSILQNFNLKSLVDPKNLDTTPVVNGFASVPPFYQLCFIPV

For `CC(=O)NCCOC(=O)C(Oc1cccc(C(F)(F)F)c1)c1ccc(Cl)cc1` (single isomer, unassigned; (-)) [(−) halofenate, (−) 2-acetamidoethyl 4-chlorophenyl-(3-trifluoromethylphenoxy)acetate], the “ability to induce PPARγ expression” value (PPARγ) was “a few fold”, the “antagonism of the agonist activity of rosiglitazone” value (PPARγ) was “significantly antagonizing the agonist activity of rosiglitazone” and the “adverse effects on selected parameters: upper GI tract, liver, blood, kidney” value ([1]; additional analyses, data not shown) was “not associated with an excess of adverse effects”. The serum triglycerides ([1]; additional results, data not shown) was “lowered serum triglycerides substantially”, the “incidence of edema formation compared to combined placebo groups” value ([1]; both studies, dose range 200- to 600 mg (FIG. 17)) was “did not increase the incidence of edema formation” and the “Discontinued due to AE” value ([1]; first study, 200 mg group) was 3 (4.1%). The “Discontinued due to AE” value ([1]; first study, 400 mg group) was 3 (4.3%), the “plasma glucose levels as judged by HbA1c compared to placebo” value ([1]; first study, 200- and 400 mg (FIG. 8)) was “lowered plasma glucose levels as judged by HbA1c levels” and the “edema formation compared to placebo” value ([1]; first study, 200- and 400 mg (FIG. 9)) was “prevented edema formation”. The “weight gain compared to placebo” value ([1]; first study, 200- and 400 mg (FIG. 10)) was “did not induce weight gain”, the “fasting plasma glucose levels compared to placebo” value ([1]; first study, 200- and 400 mg, 3 month treatment (FIG. 7)) was “lowered fasting plasma glucose levels” and the “plasma glucose levels as judged by HbA1c compared to placebo” value ([1]; first study, 200- and 400 mg, sites 60 and 70 removed (FIG. 15)) was “lowered plasma glucose levels as judged by HbA1c levels”. For the same compound, the “fasting plasma glucose levels compared to placebo” value ([1]; first study, 200- and 400 mg, sites 60 and 70 removed (FIG. 16)) was “lowered fasting plasma glucose levels”, the “fasting plasma glucose levels compared to placebo” value ([1]; second study, 600 mg (FIG. 11)) was “lowered fasting plasma glucose levels” and the “weight gain compared to placebo” value ([1]; second study, 600 mg (FIG. 18)) was “did not induce weight gain”. For the same compound, the “plasma glucose levels as judged by HbA1c” value ([1]; second study, 600 mg, all sites, placebo group demonstrated a comparable response (FIG. 12)) was “lowered plasma glucose levels as judged by HbA1c levels in the experimental group substantially from baseline”, the “plasma glucose levels as judged by HbA1c compared to placebo” value ([1]; second study, 600 mg, sites 60 and 70 removed (FIG. 13)) was “lowered plasma glucose levels as judged by HbA1c levels” and the “fasting plasma glucose levels compared to placebo” value ([1]; second study, 600 mg, sites 60 and 70 removed (FIG. 14)) was “lowered fasting plasma glucose levels”. The hsCRP levels ([2]; human patients, 14 days of treatment, dose dependent (FIG. 20)) was “lower hsCRP levels”, the blood glucose levels ([2]; patients also receiving glyburide, 14 days of treatment (FIG. 19)) was “substantially lower blood glucose levels” and the “heart weight or fluid accumulation” value (monkeys) was “did not cause increases at therapeutically relevant doses in heart weight or fluid accumulation”. For the same compound, the “heart weight or fluid accumulation” value (rats) was “did not cause increases at therapeutically relevant doses in heart weight or fluid accumulation”.

Compound `C=C/C=C(\C=C)C(=O)NCCOC(=O)C(Oc1cccc(C(F)(F)F)c1)c1ccc(Cl)cc1` (stereo not shown) [Compound 19.4] has a half-life [3] of under 1 h.

For `O=C(O)C(Oc1cccc(C(F)(F)F)c1)c1ccc(Cl)cc1` (single isomer, unassigned; (-)) [(−)halofenic acid, (−) (3-trifluoromethylphenoxy) (4-chlorophenyl)acetic acid], the “plasma glucose concentrations vs vehicle” value (C57BL/6j ob/ob Mice) is given as “significantly reduced plasma glucose concentrations at 6 hours” and the “inhibition of cytochrome P450 2C9” value (cytochrome P450 2C9) is given as “about twenty-fold less active”.
